Data on 13 molecules can be found in patent publication US20150086504A1, “POLYMERIC MICROEMULSIONS” (Janssen Pharmaceutica NV, priority 2002, published 2015).

Each structure is given as a SMILES string. In brackets after ≈: the same amount, converted by molar mass. Where two headings read alike, the source gives them in different places. Some results are limits rather than exact numbers.

Data set [1] is described as follows: Solubility of model compounds in aqueous solutions of polymer D4.1 (mixed directly with polymeric solution; Table 4B). The class given is physicochemical. Conditions: room temperature, duplicate; for solubility at 24 h: thermodynamic from solid. The method, then:
The solubility of the other model compounds in aqueous solutions of polymer D4.1 was determined by mixing the model compound directly with the polymeric solution for 24 hours at room temperature. Tested polymer concentrations were 1, 5, 10 and 20% (w/v). The obtained suspension was then filtered through a 0.45 μm PVDF membrane filter. The filtered solution was immediately diluted to allow determination of compound concentration by UV spectroscopy. (A polymer solution of the same concentration as the sample to be analysed was used as blank).

Data set [2] can be described thus: Solubility in water of model compounds (UV spectroscopy). Conditions: for solubility in water: mixed with water for 24 hours, UV spectroscopy, mean of triplicate; for solubility at 24 h: water, thermodynamic from solid.
A short description of another data set: physchem. As to conditions: water, thermodynamic from solid.
For data set [3] the following is noted: 24 h.
A short description of data set [4]: Pharmacokinetic parameters in plasma (LCMS) after oral administration of risperidone solutions. The class given is in vivo, Male Wistar rats. Conditions: rat plasma, active metabolite, micellar solution D4.3 10% (w/v) compared to reference solution. The method, then: Male Wistar rats (˜200 g) were treated by oral administration of vehicles of 2.5 mg/kg risperidone solubilized in three different vehicles (tartaric acid 0.625% v/v (as the reference), copolymer D4.3 1% (w/v) in water and D4.3 10% (w/v) in water). The animals were sacrificed by decapitation 2 hours after administration.
The above experiment was also performed in function of time for the reference solution and for the D4.3 10% (w/v) aqueous solution. Therefore, animals were sacrificed by decapitation at 10 minutes, 30 minutes, 1 hour, 2 hours, 4 hours, 8 hours, 16 hours and 24 hours after administration of the risperidone formulations. […] During this experiment, the usual pharmacokinetic parameters of the active metabolite following oral administration of the two risperidone solutions were determined by LCMS analysis of the plasma samples. […] This finding confirmed the results of an in vitro release study of risperidone from a micellar solution of the present invention. The in vitro release study was performed by dialysing a micellar solution of the invention containing C^14-radioactive risperidone against water and determining the radioactivity by liquid scintillation counting of samples taken from the water as a function of time.

The mark [5] stands for this setting: D4.1 polymer concentration 1 w/v %.
Where [6] appears, read: D4.1 polymer concentration 5 w/v %.
Setting [7] is: D4.1 polymer concentration 10 w/v %.
Setting [8] is: D4.1 polymer concentration 20 w/v %.
Setting [9] is: 1% (w/v) aqueous solution of diblock copolymer D4.1, aqueous with cosolvent or surfactant or cyclodextrin, D4.1 polymer concentration 1 w/v %.
Where [10] appears, read: 5% (w/v) aqueous solution of diblock copolymer D4.1, aqueous with cosolvent or surfactant or cyclodextrin, D4.1 polymer concentration 5 w/v %.
Setting [11] is: 10% (w/v) aqueous solution of diblock copolymer D4.1, aqueous with cosolvent or surfactant or cyclodextrin, D4.1 polymer concentration 10 w/v %.
The mark [12] stands for this setting: 20% (w/v) aqueous solution of diblock copolymer D4.1, aqueous with cosolvent or surfactant or cyclodextrin, D4.1 polymer concentration 20 w/v %.

As for `COc1cc2c(cc1OC)C1=NO[C@@H](CN3CCN(C/C(C)=C/c4ccc(F)cc4)CC3)[C@@H]1CO2` (relative stereo) [3-[[4-[(2E)-3-(4-fluorophenyl)-2-methyl-2-propenyl]-1-piperazinyl]methyl]-3a,4-dihydro-7,8-dimethoxy-3H-[1]benzopyrano[4,3-c]isoxazole [(3R,3aS)-rel-(+)]], the “Solubility in aqueous solution of diblock copolymer D4.1” value (from here on “Solubility in aqueous solution”) in data set [1] (setting [5]) turned out to be 200 µg/mL; in data set [1] (setting [6]), 1010 µg/mL; in data set [1] (setting [7]) it was 1880 µg/mL; in data set [1] (setting [8]), 3860 µg/mL. The same molecule returned a solubility in water in data set [2] of 3 µg/mL (≈ 6.23 µM).
Regarding `CS(=O)(=O)O.O=c1c2c([nH]c3ccccc13)[C@@H](c1ccc3c(c1)CCO3)N(c1ccccn1)C2` [3-(2,3-dihydro-5-benzofuranyl)-1,2,3,4-tetrahydro-2-(2-pyridinyl)-9H-pyrrolo[3,4-b]quinolin-9-one, (3R) mono methanesulfonate], the “Solubility in aqueous solution” value came out at 4370 µg/mL in data set [1] (setting [5]), 9830 µg/mL in data set [1] (setting [6]), 12380 µg/mL in data set [1] (setting [7]) and 13950 µg/mL in data set [1] (setting [8]). Further, the solubility in water in data set [2] came out at 190 µg/mL.
The matching figures for `O=c1c2c([nH]c3ccccc13)[C@@H](c1ccc3c(c1)CCO3)N(c1ncc(-c3ccccn3)cn1)C2` [3-(2,3-dihydro-5-benzofuranyl)-1,2,3,4-tetrahydro-2-[5-(2-pyridinyl)-2-pyrimidinyl]-9H-pyrrolo[3,4-b]quinolin-9-one, (3R)]: 18 µg/mL, 81 µg/mL, 150 µg/mL, 280 µg/mL and below 1 µg/mL.
The term solubility denotes the concentration that dissolves in the medium under given conditions. Read a high solubility as a readily soluble substance. In the case of `Cc1cc(C=CC#N)cc(C)c1Nc1ccnc(Nc2ccc(C#N)cc2)n1` [4-[[4-[[4-(2-cyanoethenyl)-2,6-dimethylphenyl]amino]-2-pyrimidinyl]amino]benzonitrile], the solubility at 24 h was 50 µg/mL (≈ 136 µM) in data set [1] (setting [9]); 120 µg/mL (≈ 327 µM) in data set [1] (setting [10]); 230 µg/mL (≈ 628 µM) in data set [1] (setting [11]); 440 µg/mL (≈ 1200 µM) in data set [1] (setting [12]); 0.02 µg/mL (≈ 0.0546 µM) in data set [2].
As for `Cc1cc2c(cc1-c1cc(/C=C3\SC(=O)NC3=O)ccc1OC(F)(F)F)C(C)(C)CCC2(C)C` [(Z) 5-[[3-(5,6,7,8-tetrahydro-3,5,5,8,8-pentamethyl-2-naphthalenyl)-4-(trifluoromethoxy)phenyl]methylene]-2,4-thiazolidinedione], the solubility at 24 h in data set [1] (setting [9]) was 34 µg/mL (≈ 69.5 µM); in data set [1] (setting [10]), 130 µg/mL (≈ 266 µM); in data set [1] (setting [11]), 350 µg/mL (≈ 715 µM); in data set [1] (setting [12]), 580 µg/mL (≈ 1180 µM); in “physchem”, below 0.5 µg/mL.
In “physchem”, `C[C@@H]1[C@H](O)[C@@H](C)/C=C/C=C/C=C/C=C/C=C/C=C/C=C/[C@H](O[C@@H]2O[C@H](C)[C@@H](O)[C@H](N)[C@@H]2O)C[C@@H]2O[C@](O)(C[C@@H](O)C[C@@H](O)[C@H](O)CC[C@@H](O)C[C@@H](O)CC(=O)O[C@H]1C)C[C@H](O)[C@H]2C(=O)O` [Amphotericin B, amphotericin B] displayed a solubility at 24 h of 0.1 µg/mL (≈ 0.108 µM).
Regarding `COc1ccc2c(c1)c(CC(=O)O)c(C)n2C(=O)c1ccc(Cl)cc1` [Indomethacin, indomethacin], the solubility in water in data set [3] stood at 10 µg/mL (≈ 27.9 µM). The solubility at 24 h in “physchem” is 10 µg/mL (≈ 27.9 µM).
For the molecule `CC(=O)N1CCN(c2ccc(OCC3COC(Cn4ccnc4)(c4ccc(Cl)cc4Cl)O3)cc2)CC1` (stereo not shown) [Ketoconazole, ketoconazole], the concentration in solution in data set [2] (solubility at 24 h) came to 10 µg/mL (≈ 18.8 µM).
Regarding `Nc1nc(Nc2ccc(S(N)(=O)=O)cc2)nn1C(=O)c1c(F)cccc1F` [N3-[4-(aminosulfonyl)phenyl]-1-(2,6-difluorobenzoyl)-1H-1,2,4-triazole-3,5-diamine], the solubility at 24 h in data set [1] (setting [9]) was determined as 530 µg/mL (≈ 1340 µM); in data set [1] (setting [10]) it was 2710 µg/mL (≈ 6870 µM); in data set [1] (setting [11]) it was 5760 µg/mL (≈ 14600 µM); in data set [1] (setting [12]), 13900 µg/mL (≈ 35200 µM); in “physchem”, 15 µg/mL (≈ 38 µM).
For the molecule `CC(=O)NC[C@H]1CN(c2ccc(N3Cc4cn(C)nc4C3)c(F)c2)C(=O)O1` [N-[[(5S)-3-[4-(2,6-dihydro-2-methylpyrrolo[3,4-c]pyrazol-5(4H)-yl)-3-fluorophenyl]-2-oxo-5-oxazolidinyl]methyl]-acetamide], the solubility at 24 h was determined as 20 µg/mL (≈ 53.6 µM) in data set [1] (setting [9]); 60 µg/mL (≈ 161 µM) in data set [1] (setting [10]); 100 µg/mL (≈ 268 µM) in data set [1] (setting [11]); 190 µg/mL (≈ 509 µM) in data set [1] (setting [12]); 16 µg/mL (≈ 42.9 µM) in data set [2].
As for `Cc1nc2n(c(=O)c1CCN1CCC(c3noc4cc(F)ccc34)CC1)CCCC2` [Risperidone, risperidone], in data set [4], the AUC result is recorded as “slightly higher”, the Cmax result was “lower” and the half-life result was “longer”. Also, the concentration in solution in “physchem” (solubility at 24 h) was 60 µg/mL (≈ 146 µM).
As to `Cc1cc(C)c(Nc2ccnc(Nc3ccc(C#N)cc3)n2)c(C)c1` [TMC 120, 4-[[4-[(2,4,6-trimethylphenyl)amino]-2-pyrimidinyl]amino]benzonitrile], the solubility at 24 h in data set [2] is below 1 µg/mL.
Take `Cc1cc(C#N)cc(C)c1Oc1nc(Nc2ccc(C#N)cc2)nc(N)c1Br` [TMC 125, 4-[[6-amino-5-bromo-2-[(4-cyanophenyl)amino]-4-pyrimidinyl]oxy]-3,5-dimethylbenzonitrile]: the solubility at 24 h in data set [1] (setting [9]) is 60 µg/mL (≈ 138 µM); in data set [1] (setting [11]), 520 µg/mL (≈ 1190 µM); in data set [1] (setting [12]), 870 µg/mL (≈ 2000 µM); in data set [2] it was below 1 µg/mL. Also, the “Solubility in aqueous solution” value in data set [1] (setting [6]) was 300 µg/mL.
